Reference: publication PMC6270234, “Chemical Composition of Aspidosperma ulei Markgr. and Antiplasmodial Activity of Selected Indole Alkaloids” (Molecules, 2013)
Several values for one entry are separate records, joined by “and”; a condition that tells them apart may be missing. Equal values may be shown once. Entries after “also recorded” stand apart in the source; their conditions may differ. Read-outs that look alike come from different tables or passages of the source.

Key:
[1] = tested on: multi-drug resistant K1 strain of Plasmodium falciparum; assay: In vitro antiplasmodial assay, inhibition of growth of parasites by optical microscopy; format: cell-based; settings: for IC50: Plasmodium falciparum, K1, 48 h, read-out: IC50 ± SD; for Result: activity class from IC50 in µM, K1 strain
Method: The in vitro antiplasmodial test was performed as previously described. […] Sample solutions were applied to the wells of 96-well test plates containing red blood cell suspension having initial parasitemia of 1.5%. […] After incubation, the contents of the wells were evaluated by optical microscopy. The inhibition of the growth of parasites (IGP%) was evaluated as a percentage by comparison with controls:
IGP% = 100 × [1 – (parasitemia with sample/parasitemia of untreated controls)]

[2] = tested on: K1 strain of P. falciparum; design: method as in PMID 17568942, PMID 23092722; settings: cited from earlier work
[3] = cited from earlier work
[4] = tested on: Plasmodium berghei; design: method as in PMID 23092722; settings: Plasmodium berghei-infected mice, daily doses of 50-100 mg/kg/day, 4-day suppressive test; cited from earlier work
[5] = tested on: NIH3T3 murine fibroblasts; assay: Cytotoxicity test using the Alamar Blue assay; format: cell-based; settings: Mus musculus, 48 h, tested at 50 µg/mL, read-out: IC50 (toxicity to fibroblasts)
Method: The NHI-3T3 cell line of mouse fibroblasts was grown in DMEN medium supplemented with 10% fetal bovine serum, 2 mM glutamine, 100 µg/mL streptomycin and 100 U/mL penicillin, and incubated at 37 °C with a 5% atmosphere of CO2. For assays, the cells were plated in 96-well plates (10^4 cells per well) and the Alamar Blue^TM assay was performed using previously described procedures. Briefly, after 24 h, the compounds were dissolved in DMSO and added to each well to give final concentrations of 50 µg/mL. Plates were incubated for 48 h. Control groups had final well concentrations of 0.1% DMSO. Two hours before the end of the incubations, 10 µL of Alamar Blue^TM was added to each well. The fluorescent signal was monitored with a multiplate reader using 530–560 nm excitation and 590 nm emission wavelengths.

[6] = tested on: chloroquine-resistant Fc M29-Cameroon strain of Plasmodium falciparum; design: method as in PMID 21612900; settings: cited from earlier work
[7] = P. falciparum K1 strain, 48 h incubation

| Structure (SMILES) | Result [1] | IC50 [5] | IC50 [1, 7] | further results |
| --- | --- | --- | --- | --- |
| CCN(CC)CCCC(C)Nc1ccnc2cc(Cl)ccc12 (stereo not shown) [chloroquine diphosphate, reference compound] | A (0.1 < IC50 < 5 µM = active (A)) |  |  | IC50 [1]: 0.17 µg/mL and 330 nM |
| Cc1c2ccncc2c(C)c2c1[nH]c1ccccc12 [ellipticine, reference compound] |  |  |  | in vitro antiplasmodial activity (in words) [2]: significant in vitro antiplasmodial activity; cytotoxicity (in words) [3]: low cytotoxicity; in vivo antimalarial activity (in words) [4]: high in vivo antimalarial activity |
| CCC1C2CCN(C)C1c1c([nH]c3ccccc13)C2=O (stereo not drawn) [Compound 11, 20-epi-dasycarpidone] | MA (IC50 5–20 µM = moderately active (MA)) | > 50 µg/mL | 4.5 µg/mL and 16.7 µM | in vitro antiplasmodial activity (in words) ([1]; P. falciparum K1 strain): active; also recorded: moderate inhibitory activity; melting point: 164.3 to 165.3 °C |
| C/C=C1\CN2CCc3c([nH]c4ccccc34)CC1CC2 (stereo not shown) [Compound 12, 20(E)-nor-subincanadine E] | I (IC50 > 20.0 µM = inactive (I)) | > 50 µg/mL | 54.3 ± 10.5 µM |  |
| COC(=O)[C@@H]1[C@H]2C[C@H]3c4[nH]c5ccccc5c4CCN3C[C@@H]2CC[C@@H]1O [Compound 6, yohimbine] |  |  |  | IC50 [6]: > 1 µg/mL |
| CC(=O)N1c2c(O)cccc2C23CC[N+]4=C2C(CC(=O)O)(CCC4)CCC13 (stereo not shown) [Compound 13, 12-hydroxy-N-acetyl-21(N)-dehydroplumeran-18-oic acid] | I (IC50 > 20.0 µM = inactive (I)) | > 50 µg/mL | > 135 µM |  |
| CC[C@@]12CCCN3CC[C@]4(c5ccc(OC)c(O)c5N(C(C)=O)[C@@H]4CC1)[C@H]32 [aspidocarpine] |  |  |  | in vitro antiplasmodial activity (in words) [2]: significant in vitro antiplasmodial activity |
| C=C[C@H]1C[N@@]2CC[C@H]1C[C@H]2[C@H](O)c1ccnc2ccc(OC)cc12 [quinine sulphate, reference compound] |  |  | 0.12 µg/mL and 300 nM |  |
| Cc1nccc2c(C)c3[nH]c4ccccc4c3cc12 [Compound 8, olivacine] |  |  |  | in vitro antiplasmodial activity (in words) [2]: significant in vitro antiplasmodial activity; cytotoxicity (in words) [3]: low cytotoxicity; in vivo antimalarial activity (in words) [4]: high in vivo antimalarial activity |
| COC(=O)[C@@H]1[C@H]2Cc3c4[nH]c5ccccc5c4cc[n+]3C[C@@H]2CC[C@H]1O [Compound 3, 3,4,5,6-tetradehydro-β-yohimbine] | I (IC50 > 20.0 µM = inactive (I)) | > 50 µg/mL | 39.9 ± 7.7 µM | melting point: 260 to 264 °C |
| COC(=O)[C@@H]1[C@H]2CC3c4[nH]c5ccccc5c4CCN3C[C@@H]2CC[C@H]1O (stereo partly drawn) [Compound 5, β-yohimbine] |  |  |  | IC50 [6]: > 1 µg/mL |
| CC=C1C[N+]23CCC1CC21Nc2ccccc2C1(O)CC3 (stereo not shown) [Compound 4, 19E-hunteracine] | I (IC50 > 20.0 µM = inactive (I)) | > 50 µg/mL | > 176 µM | melting point: 343 to 343.3 °C |
